Data published in paper PMC4595804, “A strategy to discover decoy chemokine ligands with an anti-inflammatory activity” (Scientific Reports, 2015).
In brackets after ≈: the same amount, converted by molar mass. Read-outs that look alike come from different tables or passages of the source. Blank lines part the entries; values can stand above or below the molecule they belong to.

What was measured:
CCL22 = molecular target: T1, CCL22 (Homo sapiens, UniProt O00626); experiment: TRIC-r calcium assay, neutraligand protocol: compound preincubated with CCL22, EGFP-CCR4+Gqi5+ HEK cells; type: cell-based; settings: for IC50: 5 nM CCL22 preincubated 1 h with compound, 21 °C, read-out: IC50 for CCL22 neutralization (calcium assay); for inhibition at 2 µg/mL: 2 μg/ml compound preincubated 1 h with 5 nM CCL22, read-out: inhibition of CCL22-induced calcium responses (primary screen)
T1 construct: codes for the mature CCL17 or CCL22 with an N-terminal thioredoxin-hexahistidin (TRX- (His)6) tag; thioredoxin (TRX) (N, cleaved yes); (His)6 (N, cleaved yes); made in house; host or cells: E. coli BL21 (DE3)
T1 sequence (O00626 25-93): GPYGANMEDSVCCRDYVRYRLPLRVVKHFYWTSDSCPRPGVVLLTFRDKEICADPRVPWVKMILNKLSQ
Method: (§1) EGFP-CCR4^+Gqi5^+HEKcells were loaded with fluorescent Ca^2+-indicator Indo-1 AM (5μM, Interchim) for 45 min at 37 °C. […] Cells (100,000 cells/well, 100μl) were seeded in black clear bottom 96-well plates (Greiner), and centrifuged at 250 × g for 5 min.
(§2) Two plates (96-well plates, Greiner) were prepared for the screen: one containing test compounds alone in order to determine their direct agonistic activity, and another one containing test compounds mixed with CCL17 or CCL22 at room temperature for 1 h (neutraligand protocol). The chemokines and test compounds were prepared at a 3× concentration, while digitonin was prepared at a 4× concentration. The CCR4 antagonist, C-021 served as control in the experiment. In the antagonist protocol, compounds were added to the cell plate (one compound per well) and incubated with cells for 30 min at room temperature, while the agonist (CCL17 or CCL22) was added to the ligand plate only.
(§3) Dye loaded cells were placed in the FlexStation 3 (Molecular Devices). […] For the primary screening, the ligands (50μl of chemokine mixed with DMSO or test compounds) were added to the cells at 40 s, followed by digitonin addition (50μl) at 100 s to the cells. Molecules were screened at a final concentration of 2μg/ml with 5 nM CCL17 or CCL22. […] The calcium response values (height of peak response over baseline) were determined. Hits were selected by comparing the response amplitude at the time of the chemokine addition ± test compound. The Z’ factor[29] was calculated according to the following equation: Z’ = 1-(3SD+ + 3SD−)/|Ave+ − Ave−|, where SD+ and Ave+ are respectively the standard deviation and the mean value of the positive controls (chemokine + DMSO), while SD− and Ave− are respectively the standard deviation and the mean value of the negative controls (HEPES-BSA (0.1%) mixed with DMSO, or cells mixed with C-021). Hit molecules were confirmed by performing concentration-response curves and their half maximal inhibitory concentration (IC50) values were calculated using the Kaleidagraph software.

CCL17 = molecular target: T2, CCL17 (Homo sapiens, UniProt Q92583); experiment: TRIC-r calcium assay, neutraligand protocol: compound preincubated with CCL17, EGFP-CCR4+Gqi5+ HEK cells; type: cell-based; settings: for IC50: 5 nM CCL17 preincubated 1 h with compound, 21 °C, read-out: IC50 for CCL17 neutralization (calcium assay); for inhibition at 2 µg/mL: 2 μg/ml compound preincubated 1 h with 5 nM CCL17, read-out: inhibition of CCL17-induced calcium responses (primary screen)
T2 construct: codes for the mature CCL17 or CCL22 with an N-terminal thioredoxin-hexahistidin (TRX- (His)6) tag; thioredoxin (TRX) (N, cleaved yes); (His)6 (N, cleaved yes); made in house; host or cells: E. coli BL21 (DE3)
T2 sequence (Q92583 24-94): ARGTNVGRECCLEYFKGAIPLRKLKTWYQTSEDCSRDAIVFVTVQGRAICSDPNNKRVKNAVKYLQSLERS
Method: as §1, §2, §3

HUT78 T cells = experiment: WST-1 metabolic activity assay; type: cell-based, human; settings: 30 μM, 72 h
Text: WST-1 metabolic activity assay
The colorimetric WST-1 cell metabolic assay (Ozyme) was used to assess the cytotoxic effect of chemokine neutraligands. This is a cell viability test based on the enzymatic cleavage by the mitochondrial succinate-tetrazolium reductase of a tetrazolium salt, WST-1 (4-[3-(4-Iodophenyl)-2-(4-nitrophenyl)-2H-5-tetrazolio]-1,3 benzene disulfonate), into a water- […]
soluble formazan dye which can be detected by absorbance at 420-480nm. HUT78 T cells (or HaCat cells) were seeded on 24-well plates (200,000 cells per well) and were incubated […]
concentration ≤1% on cells). The background control was reserved as one well containing the culture medium only. The plates were incubated for 72h at 37°C. Three days later, the medium containing the neutraligands was removed, and WST-1 reagent (1:10 final dilution) (Ozyme) was added to each well for a 2h incubation at 37°C as the manufacturer’s recommendation. The plates were shaken and absorbance was measured at 450nm (reference wavelength 690nm) against the background control, using a multiwell plate reader (EnVision, Perkin Elmer). Assays were performed as three independent replicates. […]
(Heidelberg, Germany) and was cultured in Dulbecco’s Modified Eagle Medium (DMEM) (Invitrogen) supplemented with 10% fetal bovine serum (FBS) (Gibco-BRL), 100U/ml penicillin (Invitrogen), 100µg/ml streptomycin (Invitrogen) and 2mM L-glutamine (Invitrogen) at 37°C and 5% CO 2. The cells received fresh medium every other day and were subcultured every 10 days. HaCat cells were seeded in a 24-well plate (ESSEN Bioscience) at a density of 200,000 cells per well, and were allowed to grow until confluence. A scratch wound along the cell monolayer was created using the Essen woundmakerTM. Cells were washed twice with PBS to remove detached cells, and were treated with serum-free culture medium in the absence or presence of 100ng/ml chemokine (CCL22 or CCL17) preincubated with DMSO or […]
The molecules were also tested alone […]
without the chemokine. […] One […]
µg/ml of mitomycin C (Sigma-Aldrich) was added throughout the experiment in order to block cell proliferation. Once treated, the cells were immediately placed into the IncuCyteTM live-cell imaging, and the cell migration onto the wounded area was examined for 72h. Phase-contrast images acquired for each sample were captured every 2h (objective lens x10), and […]

[1] = Solubility measurements (RP-HPLC); type: physicochemical; settings: dissolved at 10 µM, room temperature; for solubility at 1 h: kinetic from dmso stock
Method: Standard stock solutions of compounds (10mM) were prepared in DMSO, and the molecules were dissolved at a concentration of 10µM in each of the three buffers. The samples were shaken for 1h at room temperature, and centrifuged at 15,000×g . The compounds concentration in the supernatant solutions was determined using RP-HPLC (Gilson) technique. The measurements were done with a UV detector set at 230nm. The measurements were carried out at room temperature using a C18 column ([…], 50×4.6mm, Phenomenex). The aqueous mobile phase contained 0.05% trifluoroacetic acid (solvent A, Sigma-Aldrich). The organic phase was HPLC grade acetonitrile (Sigma-Aldrich CHROMASOLV) (solvent B). The mobile phase flow rate was 2ml/min, and the following program was applied for the elution: 0–0.1min, 5% B; 0.1–2.6min, 5–95% B; 2.6–3.1min, 95% B; 3.1–3.3min, 95–5% B; and 3.3–6min, 5% B. To establish external calibration curves, increasing concentrations of each compound were prepared from standard stock solutions.
The chromatograms were recorded by injecting 20µl of each standard solution, and the calibration curves were plotted using peak areas. […]

[2] = molecular target: T3, EGFP-CCR4 on HEK cells (human) (UniProt P51679)
T3 sequence: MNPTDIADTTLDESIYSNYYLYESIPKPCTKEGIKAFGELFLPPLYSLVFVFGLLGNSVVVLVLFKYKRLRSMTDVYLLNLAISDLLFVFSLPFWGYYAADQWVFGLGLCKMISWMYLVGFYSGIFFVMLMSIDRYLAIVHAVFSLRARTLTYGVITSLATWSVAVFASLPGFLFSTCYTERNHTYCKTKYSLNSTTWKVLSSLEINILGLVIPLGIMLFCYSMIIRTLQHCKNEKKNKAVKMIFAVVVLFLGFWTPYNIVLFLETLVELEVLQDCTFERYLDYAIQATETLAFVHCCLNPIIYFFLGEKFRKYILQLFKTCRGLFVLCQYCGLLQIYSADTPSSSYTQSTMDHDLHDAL

[3] = HEK293, compound 5 µM, read-out: Inhibition of CCL22 calcium responses (%)
[4] = HEK293, compound 5 µM, read-out: Inhibition of CCL17 calcium responses (%)
[5] = HEPES buffer, aqueous buffer, read-out: solubility in HEPES buffer
[6] = complete cell culture medium, plasma or biological fluid, read-out: solubility in the cell culture medium

Inhibition of CCL22 calcium responses (%) (CCL22; compound 5 µM, 5 µM): 0.0%
Inhibition of CCL22 calcium responses (%) (CCL22; compound 5 µM, listed as GPN001207, 5 µM): no inhibitory effect
Inhibition of CCL17 calcium responses (%) (CCL17; compound 5 µM): 0.0%
Molecule: O=C(O)c1ccccc1O [GPN0001207]

IC50 (CCL22): 10600 ± 3700 nM
inhibition at 2 µg/mL (CCL22; HEK293): 44%
inhibition of HUT78 cell metabolic activity (HUT78 T cells): 81.3%
solubility at 1 h [1, 5]: > 10 µM
solubility at 1 h [1, 6]: > 10 µM
Molecule: COc1ccc([C@@H](C)C(=O)c2ccc(O)cc2O)cc1 [GPN025, (R)-1-(2,4-dihydroxyphenyl)-2-(4-methoxyphenyl)propan-1-one]

IC50 (CCL22): 200 nM
inhibition at 2 µg/mL (CCL22; HEK293): 100%
inhibition of HUT78 cell metabolic activity (HUT78 T cells): 23.1%
solubility at 1 h [1, 5]: > 10 µM
solubility at 1 h [1, 6]: > 10 µM
IC50 (CCL17): 9600 ± 900 nM
inhibition at 2 µg/mL (CCL17; HEK293): 42%
Molecule: CN1C(=O)N(C)C2=NNC=NC2(O)C1=O (centres unmarked) [GPN355, 4a-hydroxy-6,8-dimethyl-6,8-dihydropyrimido[5,4-e][1,2, 4]triazine-5,7(2H, 4aH)-dione]

solubility at 1 h [1, 5]: 0.7 µM (≈ 0.238 µg/mL)
solubility in the cell culture medium ([1]; 1 h): not detected as a free molecule
IC50 (CCL17): 900 ± 100 nM
inhibition at 2 µg/mL (CCL17; HEK293): 53%
Molecule: COc1cc(C2=N/C(=C\c3ccccc3)C(=O)O2)cc(OC)c1OC [GPN251, (Z)-4-benzylidene-2-(3,4,5-trimethoxyphenyl)oxazol-5(4H)-one]

Further lines, the molecule ahead of its results:

Molecule: CC(=O)Oc1ccccc1C(=O)O [aspirin, Acetylsalicylic acid, reference compound]
inhibition at 5 µM (CCL22; [3]): 0%
inhibition at 5 µM (CCL17; [4]): 0%

Molecule: Cn1c(=O)c2[nH]cnc2n(C)c1=O [Theophylline, reference compound]
inhibition at 5 µM (CCL22; HEK293, read-out: Inhibition of CCL22 calcium responses (%)): 0%
inhibition at 5 µM (CCL17; HEK293, read-out: Inhibition of CCL17 calcium responses (%)): 0%
Inhibition of CCL17 calcium responses (%) (CCL17; compound 5 µM): no effect

Molecule: CC(C)Cn1c(=O)n(C)c(=O)c2[nH]cnc21 [IBMX, 3-isobutyl-1-methyl xanthine, reference compound]
inhibition at 5 µM (CCL22; [3]): 0%
inhibition at 5 µM (CCL17; [4]): 0%
Inhibition of CCL17 calcium responses (%) (CCL17; compound 5 µM): no effect

Molecule: recombinant human CCL17 (from UniProt Q92583 24-94) (ligand)
EC50 of calcium responses in EGFP-CCR4+ Gqi5+ HEK cells at 21 °C [2]: 3.7 nM

Molecule: Cn1c(=O)c2c(ncn2C)n(C)c1=O [Caffeine, reference compound]
inhibition at 5 µM (CCL22; [3]): 0%
inhibition at 5 µM (CCL17; [4]): 0%
Inhibition of CCL17 calcium responses (%) (CCL17; compound 5 µM): no effect

B1: recombinant human CCL22 (ligand)
chain: GPYGANMEDSVCCRDYVRYRLPLRVVKHFYWTSDSCPRPGVVLLTFRDKEICADPRVPWVKMILNKLSQ
EC50 of calcium responses in EGFP-CCR4+ Gqi5+ HEK cells at 21 °C [2]: 2.9 nM
